From ChEMBL document CHEMBL2380203, “Structure-activity relationship of cytochrome bc1 reductase inhibitor broad spectrum antifungal ilicicolin H” (Bioorg Med Chem Lett, 2013)
Values after ≈ are worked out from the molar mass of the structure shown.

Experiments:
[1] = Inhibition of rat liver NADH:cytochrome bc1 reductase
Candida albicans [2] = assay: Antifungal activity against Candida albicans MY1055 assessed as growth inhibition after 24 hrs by liquid microdilution assay; type: functional; conditions: MY1055, 24 h
[3] = Inhibition of Candida albicans MY1055 NADH:cytochrome bc1 reductase
[4] = Inhibition of Candida albicans MY1055 NADH:cytochrome bc1 reductase in presence of 40% mouse plasma; type: cell-free
Candida albicans [5] = assay: Antifungal activity against Candida albicans MY1055 assessed as growth inhibition after 24 hrs by liquid microdilution assay in presence of 10% mouse plasma; type: functional
Candida albicans [6] = assay: Ratio of IC50 for Candida albicans MY1055 NADH:cytochrome bc1 reductase in presence of 40% mouse plasma to IC50 for Candida albicans MY1055 NADH:cytochrome bc1 reductase in absence of mouse plasma

Row | Structure (SMILES) | IC50 [1] | MIC (Candida albicans [2]) | IC50 [3] | IC50 [4] | MIC (Candida albicans [5]) | Ratio IC50 (Candida albicans [6])
1 | C/C=C/[C@@H]1[C@H]2C[C@@H](CO)CC[C@@H]2C(C)=C[C@H]1C(=O)c1c(O)c(-c2ccc(O)cc2)c[nH]c1=O | 0.4 µg/mL (≈ 0.89 µM) | 0.25 µg/mL (≈ 0.556 µM) | 0.4 µg/mL (≈ 0.89 µM) | – | – | –
2 | C/C=C/[C@@H]1[C@H]2C[C@@H](C)CC[C@@H]2C(C)=C[C@H]1C(=O)c1c(O)c(-c2ccc(OC(=O)C3CCCC3)cc2)c[nH]c1=O | > 0.8 µg/mL | 1 µg/mL (≈ 1.89 µM) | 0.01 µg/mL (≈ 0.0189 µM) | – | – | –
3 | C/C=C/[C@@H]1[C@H]2C[C@@H](C)CC[C@@H]2C(C)=C[C@H]1C(=O)c1c(O)c(-c2ccc(O)cc2)cn(CC#N)c1=O | 0.8 µg/mL (≈ 1.69 µM) | 0.062 µg/mL (≈ 0.131 µM) | 0.001 µg/mL (≈ 0.00212 µM) | – | – | –
4 | C/C=C/[C@@H]1[C@H]2C[C@@H](C)CC[C@@H]2C(C)=C[C@H]1C(=O)c1c(O)c(-c2ccc(O)cc2)cn(CCN(CC)CC)c1=O | > 1 µg/mL | > 1 µg/mL | 0.02 µg/mL (≈ 0.0375 µM) | 5 µg/mL | > 1 µg/mL | 250
5 | C/C=C/[C@@H]1[C@H]2C[C@@H](C)CC[C@@H]2C(C)=C[C@H]1C(=O)c1c(O)c(-c2ccc(OCC(N)=O)cc2)cn(CC(N)=O)c1=O | > 1 µg/mL | > 1 µg/mL | 0.2 µg/mL (≈ 0.365 µM) | – | – | –
6 | C/C=C/[C@@H]1[C@H]2C[C@@H](COC(=O)C3CC3)CC[C@@H]2C(C)=C[C@H]1C(=O)c1c(O)c(-c2ccc(OC(=O)C3CC3)cc2)c[nH]c1=O | 0.01 µg/mL (≈ 0.0171 µM) | > 5 µg/mL | 0.0008 µg/mL (≈ 0.00137 µM) | – | – | –
7 | C/C=C/[C@@H]1[C@H]2C[C@@H](C)CC[C@@H]2C(C)=C[C@H]1C(=O)c1c(OC)ncc(-c2ccc(O)cc2)c1O | > 1 µg/mL | > 1 µg/mL | 0.02 µg/mL (≈ 0.0447 µM) | – | – | –
8 | C/C=C/[C@@H]1[C@H]2C[C@@H](C)CC[C@@H]2C(C)=C[C@H]1C(=O)c1c(O)c(-c2ccc(OC(=O)CCCN)cc2)c[nH]c1=O | 0.045 µg/mL (≈ 0.0868 µM) | 0.031 µg/mL (≈ 0.0598 µM) | 0.0002 µg/mL (≈ 0.000386 µM) | 0.03 µg/mL | – | 150
9 | C=CCn1cc(-c2ccc(O)cc2)c(O)c(C(=O)[C@@H]2C=C(C)[C@H]3CC[C@H](C)C[C@@H]3[C@H]2/C=C/C)c1=O | 1 µg/mL (≈ 2.11 µM) | 1 µg/mL (≈ 2.11 µM) | 0.008 µg/mL (≈ 0.0169 µM) | – | – | –
10 | C/C=C/[C@@H]1[C@H]2C[C@@H](C)CC[C@@H]2C(C)=C[C@H]1C(=O)c1c(O)c(-c2ccc(O)cc2)cn(CC(=O)OC(C)(C)C)c1=O | 1.6 µg/mL (≈ 2.92 µM) | > 5 µg/mL | > 1.6 µg/mL | – | – | –
11 | C/C=C/[C@@H]1[C@H]2C[C@@H](C)CC[C@@H]2C(C)=C[C@H]1C(=O)c1c(O)c(-c2ccc(OC(=O)CC)cc2)c[nH]c1=O | > 1.6 µg/mL | 0.125 µg/mL (≈ 0.255 µM) | 0.00081 µg/mL (≈ 0.00165 µM) | – | – | –
12 | C/C=C/[C@@H]1[C@H]2C[C@@H](C)CC[C@@H]2C(C)=C[C@H]1C(=O)c1c(O)c(-c2ccc(OC(=O)Nc3ccc(Br)cc3)cc2)c[nH]c1=O | 1 µg/mL (≈ 1.58 µM) | 5 µg/mL (≈ 7.92 µM) | 0.2 µg/mL (≈ 0.317 µM) | – | – | –
13 | C/C=C/[C@@H]1[C@H]2C[C@@H](C)CC[C@@H]2C(C)=C[C@H]1C(=O)c1c(O)c(-c2ccc(O)cc2)cn(C)c1=O | 0.25 µg/mL (≈ 0.559 µM) | 0.25 µg/mL (≈ 0.559 µM) | 0.0016 µg/mL (≈ 0.00357 µM) | – | – | –
14 | C/C=C/[C@@H]1[C@H]2C[C@@H](CO)CC[C@@H]2C(C)=C[C@H]1C(=O)c1c(O)c(-c2ccc(OC(=O)CC)cc2)c[nH]c1=O | > 0.8 µg/mL | 0.25 µg/mL (≈ 0.494 µM) | 0.008 µg/mL (≈ 0.0158 µM) | – | – | –
15 | C/C=C/[C@@H]1[C@H]2C[C@@H](C)CC[C@@H]2C(C)=C[C@H]1C(=O)c1c(O)c(-c2ccc(OC(=O)Cc3ccccc3)cc2)c[nH]c1=O | 1 µg/mL (≈ 1.81 µM) | 0.25 µg/mL (≈ 0.453 µM) | 0.0005 µg/mL (≈ 0.000906 µM) | – | – | –
16 | CC1O[C@H]1[C@@H]1[C@H]2C[C@@H](C)CC[C@@H]2[C@](C)(O)[C@H]2Oc3ncc(-c4ccc(O)cc4)c(O)c3C(=O)[C@@H]12 (some centres not stated) | 1 µg/mL (≈ 2.15 µM) | > 5 µg/mL | > 1 µg/mL | – | – | –
17 | C/C=C/[C@@H]1[C@H]2C[C@@H](CO)CC[C@@H]2C(C)=C[C@H]1C(=O)c1c(O)c(-c2ccc(OC(=O)C3CC3)cc2)c[nH]c1=O | 0.008 µg/mL (≈ 0.0155 µM) | 0.25 µg/mL (≈ 0.483 µM) | 0.002 µg/mL (≈ 0.00386 µM) | – | – | –
18 | C/C=C/[C@@H]1[C@H]2C[C@@H](CO)CC[C@@H]2C(C)=C[C@H]1C(=O)c1c(O)c(-c2ccc(OC(C)=O)cc2)c[nH]c1=O | > 0.8 µg/mL | 0.5 µg/mL (≈ 1.02 µM) | 0.16 µg/mL (≈ 0.325 µM) | – | – | –
19 | C/C=C/[C@@H]1[C@H]2C[C@@H](C)CC[C@@H]2C(C)=C[C@H]1C(=O)c1c(O)c(-c2ccc(OC(=O)/C=C/c3ccsc3)cc2)c[nH]c1=O | > 1 µg/mL | 1 µg/mL (≈ 1.76 µM) | 0.5 µg/mL (≈ 0.878 µM) | – | – | –
